± gives the standard deviation of the averaged measurements.
Compound: CC(=O)c1c(C)c2cnc(Nc3ccc(N4CCNCC4)cn3)nc2n(C2CCCC2)c1=O
Experiment: surviving fraction relative to DMSO-only wells; higher = less growth inhibition
Conditions: 50 nM; exposure time: 5 days
Outline: (§1)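 For each tumour cell line, log-phase cells were put into 384-well plates at 250–500 cells per well, then after 24 hours exposed continuously for five days to inhibitors at 0.5, 1, 5, 10, 50, 100, 500 and 1000 nM. Viability was assessed by CellTiter-Glo luminescence, with surviving fraction expressed relative to the median of DMSO-only wells. Lines were screened three times and retained only if replicate Pearson r exceeded 0.7 and median Z' exceeded 0.3.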

Test System | surviving fraction
HCC1395 BREAST | 1.28 ± 0.09
HCC1954 BREAST | 1.39 ± 0.17
SUM149 BREAST | 1.1 ± 0.065

Same assay, conditions: 100 nM; exposure time: 5 days

Test System | surviving fraction
C33A CERVIX | 1.2 ± 0.11
HCC70 BREAST | 1.08 ± 0.08
HCC1395 BREAST | 1.1 ± 0.11
HCC1954 BREAST | 1.05 ± 0.056
SUM149 BREAST | 1.14 ± 0.064

Same assay, conditions: 500 nM; exposure time: 5 days

Test System | surviving fraction
C33A CERVIX | 1.01 ± 0.082
HCC70 BREAST | 0.983 ± 0.066
HCC1395 BREAST | 1.31 ± 0.083
HCC1954 BREAST | 1.29 ± 0.054
SUM149 BREAST | 0.871 ± 0.024

Same assay, conditions: 1000 nM; exposure time: 5 days

Test System | surviving fraction
C33A CERVIX | 1.16 ± 0.12
HCC70 BREAST | 1.1 ± 0.055
HCC1395 BREAST | 1.34 ± 0.07
HCC1954 BREAST | 1.36 ± 0.092
SUM149 BREAST | 0.88 ± 0.07

Compound: CC[C@@]1(O)C(=O)OCc2c1cc1n(c2=O)Cc2cc3ccccc3nc2-1 [CAMPTOTHECIN]
Experiment: as above
Conditions: 0.5 nM; exposure time: 5 days
Outline: as §1

Test System | surviving fraction
C33A CERVIX | 0.863 ± 0.019
HCC70 BREAST | 0.905 ± 0.12
HCC1395 BREAST | 0.71 ± 0.18
HCC1954 BREAST | 0.381 ± 0.037

Same assay, conditions: 1 nM; exposure time: 5 days

Test System | surviving fraction
C33A CERVIX | 0.868 ± 0.074
HCC70 BREAST | 1.04 ± 0.029
HCC1395 BREAST | 0.909 ± 0.071
HCC1954 BREAST | 0.362 ± 0.0088

Same assay, conditions: 5 nM; exposure time: 5 days

Test System | surviving fraction
C33A CERVIX | 0.654 ± 0.1
HCC70 BREAST | 0.958 ± 0.092
HCC1395 BREAST | 0.788 ± 0.064
HCC1954 BREAST | 0.484 ± 0.033

Same assay, conditions: 10 nM; exposure time: 5 days

Test System | surviving fraction
C33A CERVIX | 0.423 ± 0.024
HCC70 BREAST | 0.63 ± 0.044
HCC1395 BREAST | 0.732 ± 0.044
HCC1954 BREAST | 0.517 ± 0.037
SUM149 BREAST | 0.126 ± 0.0081

Same assay, conditions: 50 nM; exposure time: 5 days

Test System | surviving fraction
C33A CERVIX | 0.126 ± 0.03
HCC70 BREAST | 0.443 ± 0.045
HCC1395 BREAST | 0.627 ± 0.029
HCC1954 BREAST | 0.245 ± 0.046
SUM149 BREAST | 0.102 ± 0.0081

Same assay, conditions: 100 nM; exposure time: 5 days

Test System | surviving fraction
C33A CERVIX | 0.0787 ± 0.0078
HCC70 BREAST | 0.385 ± 0.015
HCC1395 BREAST | 0.57 ± 0.086
HCC1954 BREAST | 0.172 ± 0.011
SUM149 BREAST | 0.0913 ± 0.0049

Same assay, conditions: 500 nM; exposure time: 5 days

Test System | surviving fraction
C33A CERVIX | 0.0317 ± 0.0032
HCC70 BREAST | 0.119 ± 0.061
HCC1395 BREAST | 0.421 ± 0.049
HCC1954 BREAST | 0.0478 ± 0.0088
SUM149 BREAST | 0.048 ± 0.0052

Same assay, conditions: 1000 nM; exposure time: 5 days

Test System | surviving fraction
C33A CERVIX | 0.0383 ± 0.016
HCC70 BREAST | 0.0573 ± 0.0076
HCC1395 BREAST | 0.344 ± 0.09
HCC1954 BREAST | 0.0365 ± 0.0021
SUM149 BREAST | 0.0367 ± 0.0055

Compound: COCC[n+]1c2c(n(Cc3cnccn3)c1C)C(=O)c1ccccc1C2=O [YM155]
Experiment: as above
Conditions: 0.5 nM; exposure time: 5 days
Outline: as §1

Test System | surviving fraction
C33A CERVIX | 0.816 ± 0.047
HCC70 BREAST | 1.09 ± 0.1
HCC1395 BREAST | 0.883 ± 0.23
HCC1954 BREAST | 1.08 ± 0.077
SUM149 BREAST | 0.87 ± 0.17

Same assay, conditions: 1 nM; exposure time: 5 days

Test System | surviving fraction
C33A CERVIX | 0.325 ± 0.029
HCC70 BREAST | 1.04 ± 0.11
HCC1395 BREAST | 1.07 ± 0.031
HCC1954 BREAST | 0.922 ± 0.12
SUM149 BREAST | 1.07 ± 0.061

Same assay, conditions: 5 nM; exposure time: 5 days

Test System | surviving fraction
C33A CERVIX | 0.057 ± 0.032
HCC70 BREAST | 1.01 ± 0.11
HCC1395 BREAST | 1.15 ± 0.035
HCC1954 BREAST | 0.987 ± 0.051
SUM149 BREAST | 0.81 ± 0.064

Same assay, conditions: 10 nM; exposure time: 5 days

Test System | surviving fraction
C33A CERVIX | 0.031 ± 0.0062
HCC70 BREAST | 0.934 ± 0.069
HCC1395 BREAST | 1.01 ± 0.056
HCC1954 BREAST | 0.467 ± 0.079
SUM149 BREAST | 0.445 ± 0.093

Same assay, conditions: 50 nM; exposure time: 5 days

Test System | surviving fraction
C33A CERVIX | 0.0213 ± 0.00058
HCC70 BREAST | 0.632 ± 0.049
HCC1395 BREAST | 0.733 ± 0.11
HCC1954 BREAST | 0.0892 ± 0.02
SUM149 BREAST | 0.044 ± 0.001

Same assay, conditions: 100 nM; exposure time: 5 days

Test System | surviving fraction
C33A CERVIX | 0.0393 ± 0.041
HCC70 BREAST | 0.515 ± 0.044
HCC1395 BREAST | 0.427 ± 0.12
HCC1954 BREAST | 0.035 ± 0.0064
SUM149 BREAST | 0.0257 ± 0.0035

Same assay, conditions: 500 nM; exposure time: 5 days

Test System | surviving fraction
C33A CERVIX | 0.0193 ± 0.0076
HCC70 BREAST | 0.135 ± 0.023
HCC1395 BREAST | 0.278 ± 0.079
HCC1954 BREAST | 0.0335 ± 0.00071
SUM149 BREAST | 0.0203 ± 0.0032

Same assay, conditions: 1000 nM; exposure time: 5 days

Test System | surviving fraction
C33A CERVIX | 0.0353 ± 0.015
HCC70 BREAST | 0.068 ± 0.007
HCC1395 BREAST | 0.239 ± 0.065
HCC1954 BREAST | 0.0333 ± 0.0053
SUM149 BREAST | 0.023 ± 0.0036

Compound: COc1cc2ncnc(Nc3ccc(F)c(Cl)c3)c2cc1OCCCN1CCOCC1 [GEFITINIB]
Experiment: as above
Conditions: 0.5 nM; exposure time: 5 days
Outline: as §1

Test System | surviving fraction
C33A CERVIX | 0.925 ± 0.067
HCC70 BREAST | 1.03 ± 0.13
HCC1395 BREAST | 1.07 ± 0.057
HCC1954 BREAST | 1.25 ± 0.17
SUM149 BREAST | 1.16 ± 0.077

Same assay, conditions: 1 nM; exposure time: 5 days

Test System | surviving fraction
C33A CERVIX | 1.01 ± 0.063
HCC70 BREAST | 0.976 ± 0.048
